Assay results published in patent US10800725B2, “Arylpropionyl-triketone antibacterial agents” (priority 2010, dated 2020).
Converted amounts (≈) assume the structure as drawn.

Columns and labels:
[1] = tested on: Francisella tularensis SCHU4; experiment: microbe, parasite or virus in culture; type: cell-based; conditions: SCHU4, read-out: MIC F. tularensis SCHU4
[2] = tested on: Enterococcus faecalis ATCC 19433; experiment: MIC, spiral gradient endpoint assay; conditions: ATCC19433, read-out: MIC E. faecalis 19433
[3] = biological target: E. coli RNA polymerase σ70 holoenzyme (Escherichia coli (strain K12), UniProt P0A8T7+P0A8V2); experiment: Fluorescence-detected RNA polymerase assay, E. coli RNAP; type: biochemical
Description: (§1) Fluorescence-detected RNA polymerase assays with E. coli RNA polymerase were performed by a modification of the procedure of Kuhlman et al., 2004 [Kuhlman, P., Duff, H. & Galant, A. (2004) A fluorescence-based assay for multisubunit DNA-dependent RNA polymerases. Anal. Biochem. 324, 183-190]. Reaction mixtures contained (20 μl): 0-100 nM test compound, 75 nM E. coli RNA polymerase σ^70 holoenzyme, 20 nM 384 bp DNA fragment containing the bacteriophage T4 N25 promoter, 100 μM ATP, 100 μM GTP, 100 μM UTP, 100 μM CTP, 50 mM Tris-HCl, pH 8.0, 100 mM KCl, 10 mM MgCl2, 1 mM DTT, 10 μg/ml bovine serum albumin, and 5.5% glycerol. Reaction components other than DNA and NTPs were pre-incubated for 10 min at 37° C. Reactions were carried out by addition of DNA and incubation for 5 min at 37° C., followed by addition of NTPs and incubation for 60 min at 37° C. DNA was removed by addition of 1 μl 5 mM CaCl2 and 2 U DNaseI (Ambion, Inc.), followed by incubation for 90 min at 37° C. RNA was quantified by addition of 100 μl RiboGreen RNA Quantitation Reagent (Invitrogen, Inc.; 1:500 dilution in Tris-HCl, pH 8.0, 1 mM EDTA), followed by incubation for 10 min at 25° C., followed by measurement of fluorescence intensity [excitation wavelength=485 nm and emission wavelength=535 nm; QuantaMaster QM1 spectrofluorometer (PTI, Inc.)]. IC50 is defined as the concentration of inhibitor resulting in 50% inhibition of RNA polymerase activity.

[4] = biological target: S. aureus RNA polymerase core enzyme + σA (Staphylococcus aureus (strain NCTC 8325 / PS 47), UniProt P47768+Q2G0N5); experiment: Fluorescence-detected RNA polymerase assay, S. aureus RNAP; type: biochemical
Description: as §1
(§2) Fluorescence-detected RNA polymerase assays with S. aureus RNA polymerase were performed as in Example 21.1, using reaction mixtures containing (20 μl): 0-100 nM test compound, 75 nM S. aureus RNA polymerase core enzyme, 300 nM S. aureus σ^A, 20 nM 384 bp DNA fragment containing the bacteriophage T4 N25 promoter, 100 μM ATP, 100 μM GTP, 100 μM UTP, 100 μM CTP, 40 mM Tris-HCl, pH 8.0, 80 mM NaCl, 5 mM MgCl2, 2.5 mM DTT, and 12.7% glycerol. IC50 is defined as the concentration of inhibitor resulting in 50% inhibition of RNA polymerase activity.

[5] = tested on: Staphylococcus aureus BAA-1707 MRSA (MW2); experiment: MIC, spiral gradient endpoint assay; conditions: read-out: MIC S. aureus MRSA 1707
[6] = tested on: Staphylococcus aureus BAA-1717 MRSA (USA300); experiment: MIC, spiral gradient endpoint assay; conditions: read-out: MIC S. aureus MRSA 1717
[7] = tested on: Staphylococcus aureus ATCC 13709 MSSA; experiment: MIC, spiral gradient endpoint assay; conditions: read-out: MIC S. aureus 13709
[8] = tested on: Staphylococcus aureus ATCC 12600; experiment: MIC, spiral gradient endpoint assay; conditions: ATCC12600, read-out: MIC S. aureus 12600
[9] = tested on: Mycobacterium tuberculosis H37Rv; experiment: MIC, microplate Alamar Blue assay; conditions: read-out: MIC M. tuberculosis H37Rv
[10] = tested on: Streptococcus pneumoniae ATCC 49619; experiment: MIC, spiral gradient endpoint assay (GC II agar, 5% CO2); conditions: ATCC49619, read-out: MIC S. pneumoniae 49619
[11] = tested on: Escherichia coli D21f2tolC; experiment: MIC, spiral gradient endpoint assay; conditions: read-out: MIC E. coli D21f2tolC
[12] = biological target: M. tuberculosis RNA polymerase core enzyme + σA (Mycobacterium tuberculosis (strain ATCC 25618 / H37Rv), UniProt P9WGY7+P9WGY9); experiment: Fluorescence-detected RNA polymerase assay, M. tuberculosis RNAP; type: biochemical
Description: as §1
as §2, with “M. tuberculosis” for “S. aureus”

[13] = tested on: Streptococcus pyogenes ATCC 12344; experiment: MIC, spiral gradient endpoint assay (GC II agar, 5% CO2); conditions: ATCC12344, read-out: MIC S. pyogenes 12344
[14] = tested on: Bacillus anthracis Vollum-1b; experiment: microbe, parasite or virus in culture; type: cell-based; conditions: VOLLUM1B, read-out: MIC B. anthracis Vollum-1b
[15] = tested on: Enterococcus faecium ATCC 19434; experiment: MIC, spiral gradient endpoint assay; conditions: ATCC19434, read-out: MIC E. faecium 19434
[16] = tested on: Moraxella catarrhalis ATCC 25238; experiment: MIC, spiral gradient endpoint assay (GC II agar, 5% CO2); conditions: ATCC25238, read-out: MIC M. catarrhalis 25238

`CC(C)CCC1=C(O)C(CCC(C)C)(CCC(C)C)C(=O)C(C(=O)C(C)Cc2ccccc2)=C1O` (centres unmarked) [Compound 20, 3,5-dihydroxy-2-(2-methyl-3-phenylpropanoyl)-4,6,6-triisopentylcyclohexa-2,4-dienone] gave an MIC [1] of 0.78 µg/mL (≈ 1.62 µM), an MIC [2] of 0.7 µg/mL (≈ 1.45 µM) and an IC50 [3] of 12 µM. It also gave an IC50 [4] of 13 µM, an MIC [5] of 0.7 µg/mL (≈ 1.45 µM) and an MIC [6] of 0.7 µg/mL (≈ 1.45 µM). The MIC [7] was 0.7 µg/mL (≈ 1.45 µM), the MIC [8] was 0.4 µg/mL (≈ 0.829 µM) and the MIC [9] was 50 µg/mL (≈ 104 µM). For the same molecule, the MIC [10] was 19 µg/mL (≈ 39.4 µM), the MIC [11] was 6 µg/mL (≈ 12.4 µM) and the IC50 [12] was 7.3 µM. For the same molecule, the MIC [13] was 15 µg/mL (≈ 31.1 µM), the MIC [14] was 0.098 µg/mL (≈ 0.203 µM) and the MIC [15] was 0.6 µg/mL (≈ 1.24 µM). The MIC [16] was 24 µg/mL (≈ 49.7 µM).

In the case of `CC(C)CCC1=C(O)C(CCC(C)C)(CCC(C)C)C(=O)C(C(=O)CCc2ccccc2)=C1O` [Compound 15, 3,5-dihydroxy-2-(3-phenylpropanoyl)-4,6,6-triisopentylcyclohexa-2,4-dienone], the MIC [1] is reported as 0.19 µg/mL (≈ 0.405 µM), the MIC [2] is reported as 1 µg/mL (≈ 2.13 µM) and the IC50 [3] is reported as 3.5 µM. It also gave an IC50 [4] of 11 µM, an MIC [5] of 0.4 µg/mL (≈ 0.853 µM) and an MIC [6] of 0.5 µg/mL (≈ 1.07 µM). The MIC [7] was 0.5 µg/mL (≈ 1.07 µM), the MIC [8] was 0.5 µg/mL (≈ 1.07 µM) and the MIC [9] was 50 µg/mL (≈ 107 µM). The MIC [10] was 12 µg/mL (≈ 25.6 µM), the MIC [11] was 4 µg/mL (≈ 8.53 µM) and the IC50 [12] was 2.6 µM. It also gave an MIC [13] of 12 µg/mL (≈ 25.6 µM), an MIC [14] of 0.098 µg/mL (≈ 0.209 µM) and an MIC [15] of 1.5 µg/mL (≈ 3.2 µM). For the same molecule, the MIC [16] was 25 µg/mL (≈ 53.3 µM).
